# From US20090239846A1, “Novel Compounds” (Glaxo Group Limited, priority 2005, published 2009)
# Legend:
# Recombinant human p38α = molecular target: T1, Recombinant human p38α (Homo sapiens, UniProt Q16539); assay: Fluorescence anisotropy kinase binding assay (standard or low volume); conditions: 12 nM p38α, 5 nM fluorescent ligand
# T1 construct: GST; made in house
# How it was run: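 Activated GST-tagged recombinant human p38α (pre-activated with MBP-MKK6 DD) at 12 nM final with 5 nM rhodamine green-labelled pyridinylimidazole tracer in pH 7.5 HEPES/CHAPS/DTT/MgCl2 buffer. Test compound 0.28 nM–16.6 μM or 0.02 nM–25 μM final, 3% or 1.7% DMSO; 30–60 min at room temperature. Fluorescence anisotropy read (ex 485/em 535 nm) for Ki.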
# [1] = tested on: IL-8 production by human neutrophils; assay: TNF-stimulated IL-8 production from human neutrophils; format: cell-based; conditions: Neutrophil, bound, not more than 50% inhibition at 100 nM, read-out: IC50
# Experimental: TNF-Stimulated IL-8 Production from Human Neutrophils The effect of test compounds on TNF-stimulated IL8 production by human neutrophils is measured as follows. Neutrophils are prepared from blood obtained from consenting donors, using standard methods. Blood is collected in heparinized syringes and layered over histopaque (30 ml/20 ml). Following centrifugation, the red cell pellet is resuspended in PBS and purified over a dextran gradient. Red blood cells are lysed with water for 40 sec, remaining granulocytes collected by centrifugation and resuspended at 1.5×10̂6 cells/ml. Cells are added (0.5-1 ml) to 48 well plates already containing compound at 1000×final concentration in neat DMSO or 10% DMSO in RPMI1640 with 10% FBS. TNF (final concentration 100 ng/ml) is used as the stimulus. Cells incubated for approximately 20 hrs at 37° C., 5% CO2. Levels of IL-8 in the cell free supernatant are determined by sandwich ELISA, and inhibition relative to a control with DMPO but no compound is calculated.
# [2] = tested on: influx of neutrophils to the lung in LPS-challenged rats; assay: Rat LPS neutrophilia model; format: in vivo; conditions: LPS aerosol, lavage 4 hours later, in at least one of the range of conditions tested, significance p<0.05
# How it was run: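 Rats pretreated 15 min–24 h with compound or vehicle, given intratracheally (200 ul, isoflurane anaesthesia) as suspension in various vehicles, then exposed to LPS aerosol (100 ug/ml) 15 min. BAL 4 h later; Diffquick-stained differential counts give % inhibition of neutrophils versus no-compound controls at a set concentration and pretreatment time.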
# T1 sequence (Q16539 whole entry): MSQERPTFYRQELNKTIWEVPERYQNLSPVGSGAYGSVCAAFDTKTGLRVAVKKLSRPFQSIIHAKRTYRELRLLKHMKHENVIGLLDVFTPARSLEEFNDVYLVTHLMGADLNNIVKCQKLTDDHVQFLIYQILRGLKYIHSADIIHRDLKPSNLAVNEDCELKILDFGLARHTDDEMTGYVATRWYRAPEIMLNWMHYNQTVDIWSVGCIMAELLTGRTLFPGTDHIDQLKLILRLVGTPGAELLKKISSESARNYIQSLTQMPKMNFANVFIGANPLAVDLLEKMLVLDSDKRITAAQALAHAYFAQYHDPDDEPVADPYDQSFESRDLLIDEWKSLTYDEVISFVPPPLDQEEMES
"active in the assay (pIC50, p38α binding) (Recombinant human p38α)",IC50 [1] [nM],SMILES,melting point,inhibition of neutrophilia [2]
active,> 100,"CCN(CC)C(=O)c1ccc(C)c(-c2nc(NCCN(C)C)nc3c2CNC(=O)N3c2c(F)cccc2F)c1 [156(c), 3-(8-(2,6-difluorophenyl)-2-{[2-(dimethylamino)ethyl]amino}-7-oxo-5,6,7,8-tetrahydropyrimido[4,5-d]pyrimidin-4-yl)-N,N-diethyl-4-methylbenzamide]",125 to 127 °C,
,,"CCN(CC)CCCNc1nc(-c2cc(C(=O)NC)ccc2C)c2c(n1)N(c1c(F)cccc1F)C(=O)NC2 [Example 172, 3-[2-{[3-(diethylamino)propyl]amino}-8-(2,6-difluorophenyl)-7-oxo-5,6,7,8-tetrahydropyrimido[4,5-d]pyrimidin-4-yl]-N,4-dimethylbenzamide]",133 to 136 °C,statistically nonsignificant inhibition of neutrophilia
,,Cc1ccc(C(=O)NCc2ccccc2)cc1-c1nc(N2CCN(C)CC2)nc2c1CNC(=O)N2c1c(F)cccc1F [Example 148],164 to 168 °C,statistically nonsignificant inhibition of neutrophilia
,> 100,"CCN(CC)C(=O)c1ccc(C)c(-c2nc(NC3CCN(C)CC3)nc3c2CNC(=O)N3c2c(F)cccc2F)c1 [Example 159, 3-{8-(2,6-difluorophenyl)-2-[(1-methyl-4-piperidinyl)amino]-7-oxo-5,6,7,8-tetrahydropyrimido[4,5-dl-pyrimidin-4-yl}-N,N-diethyl-4-methylbenzamide]",165 to 169 °C,
,,"CNC(=O)c1ccc(C)c(-c2nc(N(C)CCCN(C)C)nc3c2CNC(=O)N3c2c(F)cccc2F)c1 [Example 174, 3-{8-(2,6-difluorophenyl)-2-[[3-(dimethylamino)propyl](methyl)amino]-7-oxo-5,6,7,8-tetrahydropyrimido[4,5-d]pyrimidin-4-yl}-dimethylbenzamide]",163 to 165 °C,inactive
active,,"Cc1ccc(C(=O)NCc2ccccc2)cc1-c1nc(NCCNC(C)C)nc2c1CNC(=O)N2c1c(F)cccc1F [Example 20, 3-[8-(2,6-Difluorophenyl)-2-({2-[(1-methylethyl)amino]ethyl}amino)-7-oxo-5,6,7,8-tetrahydropyrimido[4,5-d]pyrimidin-4-yl]-4-methyl-N-(phenylmethyl)benzamide]",133 to 137 °C,
,> 100,Cc1ccc(C(=O)N(C)C)cc1-c1nc(NCCN(C)C)nc2c1CNC(=O)N2c1c(F)cccc1F [Example 152],138 to 142 °C,
active,,"Cc1ccc(C(=O)NCc2ccccc2)cc1-c1nc(N2CCC(N)CC2)nc2c1CNC(=O)N2c1c(F)cccc1F [15(c), 3-[2-(4-Amino-1-piperidinyl)-8-(2,6-difluorophenyl)-7-oxo-5,6,7,8-tetrahydropyrimido[4,5-d]pyrimidin-4-yl]-4-methyl-N-(phenylmethyl)benzamide]",210 to 266 °C (dec.),
,,"CNC(=O)c1ccc(C)c(-c2nc(NCCCN(C)C)nc3c2CNC(=O)N3c2c(F)cccc2F)c1 [Example 166, 3-(8-(2,6-difluorophenyl)-2-{[3-(dimethylamino)propyl]amino}-7-oxo-5,6,7,8-tetrahydropyrimido[4,5-d]pyrimidin-4-yl)-N,4-dimethylbenzamide]",164 to 167 °C (dec.),statistically nonsignificant inhibition of neutrophilia
active,,"CNCCNc1nc(-c2cc(C(=O)NCc3ccccc3)ccc2C)c2c(n1)N(c1c(F)cccc1F)C(=O)NC2 [19(b), 3-(8-(2,6-Difluorophenyl)-2-{[2-(methylamino)ethyl]amino}-7-oxo-5,6,7,8-tetrahydropyrimido[4,5-d]pyrimidin-4-yl)-4-methyl-N-(phenylmethyl)benzamide]",157 to 161 °C,
,,"Cc1ccc(NC(=O)c2ccsc2)cc1-c1nc(N2CCC(N)CC2)nc2c1CNC(=O)N2c1c(F)cccc1F [Example 11, N-{3-[2-(4-amino-1-piperidinyl)-8-(2,6-difluorophenyl)-7-oxo-5,6,7,8-tetrahydropyrimido[4,5-d]pyrimidin-4-yl]-4-methylphenyl}-3-thiophenecarboxamide]",250 to 261 °C (dec.),statistically significant inhibition of neutrophilia
active,,"CNC(=O)c1ccc(C)c(-c2nc(NCCN(C)C)nc3c2CNC(=O)N3c2c(F)cccc2F)c1 [Example 163(c), 3-(8-(2,6-difluorophenyl)-2-{[2-(dimethylamino)ethyl]amino}-7-oxo-5,6,7,8-tetrahydropyrimido[4,5-d]-pyrimidin-4-yl)-N,4-dimethylbenzamide]",155 to 158 °C (dec.),
active,,"Cc1ccc(C(=O)NCc2ccccc2)cc1-c1nc(NC2CCNCC2)nc2c1CNC(=O)N2c1c(F)cccc1F [21(b), 3-[8-(2,6-Difluorophenyl)-7-oxo-2-(4-piperidinylamino)-5,6,7,8-tetrahydropyrimido[4,5-d]pyrimidin-4-yl]-4-methyl-N-(phenylmethyl)benzamide]",172 to 176 °C (dec.),
,,"Cc1ccc(C(=O)Nc2ccc(C)c(-c3nc(N4CCC(N)CC4)nc4c3CNC(=O)N4c3c(F)cccc3F)c2)cc1F [Example 24, N-{3-[2-(4-amino-1-piperidinyl)-8-(2,6-difluorophenyl)-7-oxo-5,6,7,8-tetrahydropyrimido[4,5-d]pyrimidin-4-yl]-4-methylphenyl}-3-fluoro-4-methylbenzamide]",240 °C,statistically nonsignificant inhibition of neutrophilia
,,"CNC(=O)c1ccc(C)c(-c2nc(N3CCC(N4CCCC4)CC3)nc3c2CNC(=O)N3c2c(F)cccc2F)c1 [Example 175, 3-{8-(2,6-difluorophenyl)-7-oxo-2-[4-(1-pyrrolidinyl)-1-piperidinyl]-5,6,7,8-tetrahydropyrimido[4,5-d]pyrimidin-4-yl}-N,4-dimethylbenzamide]",189 to 194 °C (dec.),inactive
,,Cc1ccc(C(=O)NCc2ccccc2)cc1-c1nc(NCCCN(C)C)nc2c1CNC(=O)N2c1c(F)cccc1F [Example 151],141 to 144 °C,statistically nonsignificant inhibition of neutrophilia
active,,"Cc1ccc(C(=O)NCc2ccccc2)cc1-c1nc(NC2CCN(C)CC2)nc2c1CNC(=O)N2c1c(F)cccc1F [Example 22, 3-[8-(2,6-Difluorophenyl)-2-[(1-methyl-4-piperidinyl)amino]-7-oxo-5,6,7,8-tetrahydropyrimido[4′-d]pyrimidin-4-yl]-4-methyl-N-(phenylmethyl)benzamide]",152 to 154 °C (dec.),
,,"Cc1ccc(C(=O)NCc2ccccc2)cc1-c1nc(N(C)CCCN(C)C)nc2c1CNC(=O)N2c1c(F)cccc1F [Example 17, 3-{8-(2,6-Difluorophenyl)-2-[[3-(dimethylamino)propyl](methyl)amino]-7-oxo-5,6,7,8-tetrahydropyrimido[4,5-d]pyrimidin-4-yl}-4-methyl-N-(phenylmethyl)benzamide]",124 to 127 °C,statistically nonsignificant inhibition of neutrophilia
,,"Cc1ccc(C(=O)Nc2ccc(C)c(-c3nc(OC(C)C)nc4c3CNC(=O)N4c3c(F)cccc3F)c2)cc1F [Example 26, N-(3-{8-(2,6-difluorophenyl)-2-[(1-methylethyl)oxy]-7-oxo-5,6,7,8-tetrahydropyrimido[4,5-d]pyrimidin-4-yl}-4-methylphenyl)-3-fluoro-4-methylbenzamide]",253.5 to 255.4 °C,inactive
,,"CNC(=O)c1ccc(C)c(-c2nc(N3CCC(N4CCCCC4)CC3)nc3c2CNC(=O)N3c2c(F)cccc2F)c1 [Example 176, 3-[2-(1,4′-bipiperidin-1′-yl)-8-(2,6-difluorophenyl)-7-oxo-5,6,7,8-tetrahydropyrimido[4,5-d]pyrimidin-4-yl]-N,4-dimethylbenzamide]",179 to 184 °C (dec.),statistically nonsignificant inhibition of neutrophilia

SMILES,"active in the assay (pIC50, p38α binding) (Recombinant human p38α)",IC50 [1] [nM],melting point,inhibition of neutrophilia [2]
"Cc1ccc(C(=O)Nc2ccc(C)c(-c3nc(NC4CC(C)(C)NC(C)(C)C4)nc4c3CNC(=O)N4c3c(F)cccc3F)c2)cc1F [23(e), N-(3-{8-(2,6-difluorophenyl)-7-oxo-2-[(2,2,6,6-tetramethyl-4-piperidinyl)amino]-5,6,7,8-tetrahydropyrimido[4,5-d]pyrimidin-4-yl}-4-methylphenyl)-3-fluoro-4-methylbenzamide]",active,,220 °C (dec.),statistically nonsignificant inhibition of neutrophilia
"Cc1ccc(C(=O)Nc2ccc(C)c(-c3nc(N(C)C)nc4c3CNC(=O)N4c3c(F)cccc3F)c2)cc1F [Example 28, N-{3-[8-(2,6-difluorophenyl)-2-(dimethylamino)-7-oxo-5,6,7,8-tetrahydropyrimido[4,5-d]pyrimidin-4-yl]-4-methylphenyl}-3-fluoro-4-methylbenzamide]",active,,257.8 to 264.3 °C,statistically nonsignificant inhibition of neutrophilia
